# According to the supplement of paper PMC10307832:
# Tests used:
# Test in all cases: relative viability (nuclei count vs DMSO), 5 days (fraction); higher = more cells survive
# [1] = compound: COc1cc2ncn(-c3cc(OCc4ccccc4C(F)(F)F)c(C(N)=O)s3)c2cc1OC + CS(=O)(=O)CCNCc1ccc(-c2ccc3ncnc(Nc4ccc(OCc5cccc(F)c5)c(Cl)c4)c3c2)o1 [Lapatinib] (partner 2 µM)
# In short: (§1)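 Lung cancer cell lines in 1536-well plates got either a single drug or a fixed anchor-drug dose together with five library-drug doses (not always all listed) in √10 steps, by pin tool, on the day after seeding. Nuclei were counted after 5 days, and relative viability is the treated-to-vehicle ratio of nuclei counts. Values are medians of duplicate plates.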
# [2] = compound: COc1cc2ncn(-c3cc(OCc4ccccc4C(F)(F)F)c(C(N)=O)s3)c2cc1OC + C[C@@H](Oc1cc(-c2cnn(C3CCNCC3)c2)cnc1N)c1c(Cl)ccc(F)c1Cl [Crizotinib] (partner 1 µM)
# In short: as §1
# [3] = compound: COc1cc2ncn(-c3cc(OCc4ccccc4C(F)(F)F)c(C(N)=O)s3)c2cc1OC + Cc1nc(Nc2ncc(C(=O)Nc3c(C)cccc3Cl)s2)cc(N2CCN(CCO)CC2)n1 [Dasatinib] (partner 0.075 µM)
# In short: as §1
# [4] = compound: COc1cc2ncn(-c3cc(OCc4ccccc4C(F)(F)F)c(C(N)=O)s3)c2cc1OC + Nc1nc2[nH]cc(CCc3ccc(C(=O)N[C@@H](CCC(=O)O)C(=O)O)cc3)c2c(=O)[nH]1 [Pemetrexed] (partner 0.2 µM)
# In short: as §1
Cell Line,relative viability ([1]; first compound 0.05 µM),relative viability ([1]; first compound 0.1581 µM),relative viability ([1]; first compound 0.5 µM),relative viability ([1]; first compound 1.581 µM),relative viability ([1]; first compound 5 µM),relative viability ([2]; first compound 0.05 µM),relative viability ([2]; first compound 0.1581 µM),relative viability ([2]; first compound 0.5 µM),relative viability ([2]; first compound 1.581 µM),relative viability ([2]; first compound 5 µM),relative viability ([3]; first compound 0.05 µM),relative viability ([3]; first compound 0.1581 µM),relative viability ([3]; first compound 0.5 µM),relative viability ([3]; first compound 1.581 µM),relative viability ([3]; first compound 5 µM),relative viability ([4]; first compound 0.05 µM),relative viability ([4]; first compound 0.1581 µM),relative viability ([4]; first compound 0.5 µM),relative viability ([4]; first compound 1.581 µM),relative viability ([4]; first compound 5 µM)
EMC-BAC-2,0.998,0.944,0.786,0.228,0.216,0.893,0.855,0.789,0.439,0.154,0.328,0.361,0.296,0.168,0.139,0.459,0.446,0.441,0.338,0.311
NCI-H23,1.22,0.789,0.451,0.159,0.141,0.754,0.362,0.258,0.127,0.121,0.801,0.636,0.426,0.11,0.0948,0.648,0.583,0.208,0.184,0.112
SK-LU-1,0.833,0.842,0.427,0.246,0.197,0.935,0.832,0.411,0.296,0.313,0.183,0.198,0.138,0.146,0.158,0.7,0.886,0.351,0.298,0.272
NCI-H358,0.553,0.435,0.371,0.175,0.145,0.481,0.575,0.164,0.132,0.213,0.151,0.195,0.185,0.0783,0.0726,0.196,0.167,0.192,0.102,0.0855
LC-2-ad,0.811,0.592,0.511,0.119,0.0933,0.485,0.422,0.295,0.212,0.287,0.639,0.594,0.201,0.123,0.133,0.244,0.281,0.248,0.213,0.171
HCC-15,0.861,0.731,0.602,0.135,0.114,0.855,0.716,0.461,0.152,0.11,0.582,0.548,0.242,0.105,0.0655,0.23,0.215,0.174,0.156,0.13
NCI-H2405,1.12,0.882,0.669,0.402,0.323,0.84,0.682,0.595,0.357,0.463,0.24,0.21,0.171,0.162,0.131,1.12,1.01,0.399,0.377,0.367
LXF-289,0.912,0.709,0.647,0.147,0.0707,0.8,0.615,0.453,0.147,0.0723,0.225,0.206,0.124,0.037,0.0349,0.897,0.674,0.597,0.184,0.0849
